Molecules are shown by their SMILES. In brackets after ≈: the same amount, converted by molar mass. Several values for one entry are separate records, joined by “and”; a condition that tells them apart may be missing. Identical values can stand only once. Like-named read-outs stand apart in the source and are kept apart here. Some results are limits rather than exact numbers.

Series [1] concerns Influenza B. Nature of the series: Antiviral activity, Influenza B (MDCK). The conditions noted are these: Influenza B virus. In kind it is cell-based.
Series [2] has as its system HepG2 human hepatoma cell line. Put plainly: Cytotoxicity (cell proliferation) assay, HepG2. To be noted: cells grown on collagen coated plates for 4 or 10 d.
Series [3] deals with HepG2 cells. Put plainly: Incorporation of drug into cellular RNA and DNA. To be noted: 10 μM [3H] drug, 30 hours.
Series [4] deals with KB, human nasopharyngeal carcinoma. Nature of the series: Cytotoxicity, KB. Type of series: cell-based.
In series [5] the test system is BVDV (strain NADL). Nature of the series: BVDV cell protection assay (CPA). Type of series: cell-based. To be noted: Bovine viral diarrhea virus isolates and strains, MOI of BVDV 0.04.
In series [6] the test system is HBV. Type of series: cell-based.
Series [7] has as its system HCMV. Nature of the series: Antiviral activity, HCMV (HFF). Type of series: cell-based. To be noted: Human betaherpesvirus 5.
Series [8] relates to A549, Human lung carcinoma cells. Put plainly: Cytotoxicity, A549. In kind it is cell-based. The conditions noted are these: Adenovirus type 1 line.
The test system of series [9] is BVDV New York-1 (NY-1) strain. Put plainly: MDBK cells persistently infected with BVDV strain New York-1, virus titer. Type of series: cell-based, bovine viral diarrhea virus. The conditions noted are these: 8 μM alone, after one passage.
The test system of series [10] is Punta Toro A. Put plainly: organism not typed. Type of series: cell-based. To be noted: LLC-MK2.

Take `CC1(O)C(O)C(CO)OC1n1ccc(N)nc1=O` (stereo not drawn) [mCyd, 4-Amino-1-(3,4-dihydroxy-5-hydroxymethyl-3-methyl-tetrahydro-furan-2-yl)-1H-pyrimidine-2-one]: the EC50 is greater than 200 µM in series [1], 0.5 µM in [5], 9.9 to 15.6 µg/mL (≈ 38.5 to 60.6 µM) in [7] and greater than 200 µM in [10]. In addition, the CC50 in [2] is greater than 200 µM; in [4] (Rhinovirus type 2 line, read-out: CC50), greater than 200 µM; in [4] (Rhinovirus type 5 line), 20 to 30 µg/mL; in series [8] it was greater than 200 µM. Besides, the “Incorporated drug amount, DNA” value in series [3] is 0.0013 pmole/μg DNA and 0.0013 ± 0.0008^a pmole/μg DNA. Also, the “Incorporated drug amount, RNA” value in [3] was 0.0014 pmole/μg RNA and 0.0014 ± 0.0008^a pmole/μg RNA. In addition, the “activity against HBV” value in [6] was “no activity”. In addition, the “reduction of viral titers” value in series [9] is “approximately 3.5 log10”.

In general, EC50 refers to the concentration giving half of the maximal effect. A high value points to a need for much substance. By CC50 is commonly meant the concentration that lowers cell viability or growth by half.

These data come from patent publication US7625875B2 (priority 2002, dated 2009).
